Measured values reported in US20260305620A1, “NOVEL INSECTICIDAL MIXTURES FOR CONTROLLING AND PROTECTING CROPS” (ADAMA MAKHTESHIM LTD., priority 2023, published 2026).
Read-outs that look alike come from different tables or passages of the source.

Test system: Aphis gossypii
Test: Mortality of Aphis gossypii adults + progeny on sprayed pepper leaf disks; synergy/antagonism of garlic extract mixtures by Colby's formula
Assay type: in vivo, Aphis gossypii (cotton aphid)
Details: for mortality at 0.2 ppm: 0.2 ppm ai; for mortality at 0.1 ppm: 0.1 ppm ai; for mortality at 0.8 ppm: read-out: Mortality Observed, alone, 0.8 ppm ai; for mortality at 5 ppm: read-out: Mortality Observed, alone, 5 ppm ai
Description: Evaluating the synergistic or antagonistic effects of garlic extract and other insecticides on Aphis gossypii in pepper crop.
Pepper plants of Makko F1 cv, obtained from seeds, were grown at totally controlled conditions in a growing chamber. Healthy and untreated Pepper plants were used at least two months after seeding to get leaf disks suitable to be exposed to Aphis gossypii adults.
The aphids' adults were obtained from mass rearing; aphids were reared on cucumber and zucchini plants under controlled environmental conditions.
Suitable leaves were collected from pepper plants. Leaf disks were prepared together with arenas containing a layer of water agar on the base. 8 leaf disks per treatment were obtained from the collected leaves and 20 adults/arena were inoculated.
Each arena was sprayed, using an electric low pressure hand sprayer, with the corresponding insecticide mixture. Tween 80 surfactant, at the rate of 0.05% was added in each treatment mixture.
The untreated check was sprayed with distilled water together with Tween 80 surfactant at a dose of 0.05%.
The experimental arenas were kept in a growth chamber under controlled climatic conditions: 21° C. (±0.5), 60% RH and 16:8 light:dark photoperiod regime. The assessment of mortality (as % of died adults+progeny) was performed according to the characteristics of each Active Ingredient.
Garlic extract a) and the additional pesticide b) were priorly calibrated to obtain the Dose Response Curve and the Lethal Dose (ppm) values; according to the calibrations the mixing protocols were obtained at the proper mixing ratios.
All the statistical procedures [Student-Newman-Keuls (SNK), Dose response analysis (Probit, confidence level 95%) Anova and other calculation analysis] were performed using the ARM 2020.0 software.
The evaluation of Synergy or Antagonism of the two active ingredients was performed by using the Colby's formula, above described: […]
in which E represents the expected percentage of insecticidal control for the combination of the two insecticides at defined doses, A is the percentage of insecticidal control observed by the compound (I) at a defined dose (for example, a), B is the percentage of insecticidal control observed by the compound (II) at a defined dose (for example, b). When the ratio between the observed percentage of insecticidal control for the combination of the two insecticides at defined doses and the expected percentage of insecticidal control for the combination of the two insecticides at defined doses is greater than 1.15, the effect is synergistic.

[1] = Aphis gossypii, foliar, alone, read-out: Mortality Observed
[2] = Aphis gossypii, foliar, read-out: Mortality Observed, alone, 1 ppm ai
[3] = Aphis gossypii, foliar, alone, 1 ppm ai, read-out: Mortality Observed
[4] = Aphis gossypii, foliar, alone, 2 ppm ai, read-out: Mortality Observed

CC1(C)[C@H](C(=O)O[C@H](C#N)c2cccc(Oc3ccccc3)c2)[C@@H]1/C=C(\Cl)C(F)(F)F (racemic) [Lambda cyhalothrin, lambda-cyhalothrin]
mortality at 0.2 ppm [1]: 32.1%
mortality at 0.4 ppm (Aphis gossypii, foliar, alone, 0.4 ppm ai, read-out: Mortality Observed): 37.6%

C/C(=N\C#N)N(C)Cc1ccc(Cl)nc1 [Acetamiprid, acetamiprid]
mortality at 0.01 ppm (Aphis gossypii, foliar, alone, 0.01 ppm ai, read-out: Mortality Observed): 48.9%
mortality at 0.05 ppm (Aphis gossypii, foliar, alone, 0.05 ppm ai, read-out: Mortality Observed): 25%
mortality at 0.1 ppm [1]: 48.9%

C[C@]1(COC(=O)C2CC2)[C@@H]2C[C@H](O)[C@@]3(C)Oc4cc(-c5cccnc5)oc(=O)c4[C@H](O)[C@@H]3[C@@]2(C)CC[C@@H]1OC(=O)C1CC1 [Afidopyropen, afidopyropen]
mortality at 0.02 ppm (Aphis gossypii, foliar, read-out: Mortality Observed, alone, 0.02 ppm ai): 25.3%
mortality at 1 ppm [2]: 37.3%
mortality at 2 ppm (Aphis gossypii, foliar, read-out: Mortality Observed, alone, 2 ppm ai): 49.4%

C/C=C(\C)C(=O)O[C@H]1C[C@@H](OC(C)=O)[C@@]2(C(=O)OC)CO[C@H]3[C@@H](O)[C@@](C)([C@]45O[C@@]4(C)[C@H]4C[C@@H]5O[C@@H]5OC=C[C@@]54O)[C@H]4[C@]1(CO[C@]4(O)C(=O)OC)[C@@H]32 [Azadirachtin, azadirachtin]
mortality at 1 ppm [3]: 22.7%
mortality at 2 ppm [4]: 28.9%

FC(F)(F)c1ccc(COc2ncncc2C2OCCCO2)cc1 [Benzpyrimoxan, benzpyrimoxan]
mortality at 0.8 ppm (Aphis gossypii, foliar): 8.2%
mortality at 5 ppm (Aphis gossypii, foliar): 42%

CC(C)c1cc(Oc2ccccc2)cc(C(C)C)c1NC(=S)NC(C)(C)C [Diafenthiuron, diafenthiuron]
mortality at 1 ppm [2]: 22.7%
mortality at 5 ppm (Aphis gossypii, foliar): 26%
Mortality Observed (alone, 5 ppm ai): 26.22%

N#Cc1nn(-c2c(Cl)cc(C(F)(F)F)cc2Cl)c(N)c1[S+]([O-])C(F)(F)F (stereo not shown) [Fipronil, fipronil]
mortality at 0.1 ppm [1]: 35%
mortality at 0.5 ppm (Aphis gossypii, foliar, alone, 0.5 ppm ai, read-out: Mortality Observed): 43.2%

N#CCNC(=O)c1cnccc1C(F)(F)F [Flonicamid, flonicamid]
Mortality Observed (alone, 1 ppm ai): 31.4%
Mortality Observed (alone, 2 ppm ai): 27.2%

CC(=O)N1C(=O)N(NCc2cccnc2)Cc2cc(C(F)(C(F)(F)F)C(F)(F)F)ccc21 [Pyrifluquinazon, pyrifluquinazon]
mortality at 0.08 ppm (Aphis gossypii, foliar, read-out: Mortality Observed, alone, 0.08 ppm ai): 24.9%
mortality at 0.5 ppm (Aphis gossypii, foliar, read-out: Mortality Observed, alone, 0.5 ppm ai): 42.7%
mortality at 0.8 ppm (Aphis gossypii, foliar): 47.6%

CCOC(=O)OC1=C(c2cc(C)ccc2C)C(=O)N[C@]12CC[C@@H](OC)CC2 [Spirotetramat, spirotetramat]
mortality at 1 ppm [3]: 23.5%
mortality at 2 ppm [4]: 44.4%

CC(C)[C@@H](Nc1ccc(C(F)(F)F)cc1Cl)C(=O)OC(C#N)c1cccc(Oc2ccccc2)c1 (stereo partly shown) [Tau fluvalinate, tau-fluvalinate]
mortality at 0.1 ppm [1]: 28.1%
mortality at 0.2 ppm [1]: 47.9%

CCc1nn(C)c(C(=O)NCc2ccc(Oc3ccc(C)cc3)cc2)c1Cl [Tolfenpyrad, tolfenpyrad]
mortality at 0.2 ppm [1]: 15.9%
mortality at 1 ppm [3]: 39.3%
